Usually Ki stands for the equilibrium dissociation constant of an inhibitor or competing ligand from its target.

In the first experiment the target is T1, human CRF receptors (Homo sapiens, UniProt P34998).
T1 construct: expressed in transfected cells
T1 sequence (P34998 24-415): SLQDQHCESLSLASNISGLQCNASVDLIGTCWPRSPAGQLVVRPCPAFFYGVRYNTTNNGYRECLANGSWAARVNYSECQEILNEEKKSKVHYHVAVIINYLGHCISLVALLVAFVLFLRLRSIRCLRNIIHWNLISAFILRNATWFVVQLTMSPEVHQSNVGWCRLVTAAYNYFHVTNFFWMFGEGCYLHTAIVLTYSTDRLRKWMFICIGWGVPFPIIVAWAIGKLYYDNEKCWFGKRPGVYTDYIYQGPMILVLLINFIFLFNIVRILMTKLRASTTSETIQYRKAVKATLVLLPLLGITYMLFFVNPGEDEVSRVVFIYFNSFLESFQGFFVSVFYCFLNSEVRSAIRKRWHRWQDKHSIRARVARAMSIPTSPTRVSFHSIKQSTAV
As to the kind of experiment: CRF receptor binding activity (radioligand displacement, Example 25).
Conditions: not given
The text has this:
The effectiveness of a compound as a CRF receptor antagonist may be determined by various assay methods. […] CRF receptor affinity may be determined by binding studies that measure the ability of a compound to inhibit the binding of a radiolabeled CRF (e.g., [^125I]tyrosine-CFR) to its receptor (e.g., receptors prepared from rat cerebral cortex membranes). The radioligand binding assay described by DeSouza et al. (supra, 1987) provides an assay for determining a compound's affinity for the CRF receptor.
[formula] where L=radioligand and KD=affinity of radioligand for receptor (Cheng and Prusoff, Biochem. Pharmacol. 22:3099, 1973).
By utilizing radiolabeled CRF ligands, the assay may be used to evaluate the binding activity of the compounds of the present invention with any CRF receptor subtype.
Briefly, the binding assay involves the displacement of a radiolabeled CRF ligand from the CRF receptor. More specifically, the binding assay is performed in 96-well assay plates using 1-10 μg cell membranes from cells stably transfected with human CRF receptors. […] The mixture is incubated for 2 hours at 22° C. followed by separation of the bound and free radioligand by rapid filtration over glass fiber filters. Following three washes, the filters are dried and radioactivity (Auger electrons from ^125I) is counted using a scintillation counter. All radioligand binding data may be analyzed using the non-linear least-squares curve-fitting programs Prism (GraphPad Software Inc) or XLfit (ID Business Solutions Ltd).
Regarding `COc1ccc(-c2c(C)nn3c(NCc4nc(C)no4)cc(C)nc23)c(C)c1` [Example 11-6, [3-(4-Methoxy-2-methyl-phenyl)-2,5-dimethyl-pyrazolo[1,5-a]pyrimidin-7-yl]-(3-methyl-[1,2,4]oxadiazol-5-ylmethyl)-amine], the Ki is under 100 nM.
In turn, `COc1ccc(-c2c(C)nn3c(N[C@H](C)Cc4nc(C)no4)cc(C)nc23)c(C)c1` [Example 11-10, [3-(4-Methoxy-2-methyl-phenyl)-2,5-dimethyl-pyrazolo[1,5-a]pyrimidin-7-yl]-[(R)-1-methyl-2-(3-methyl-[1,2,4]oxadiazol-5-yl)-ethyl]-amine] displayed a Ki of under 100 nM.
Same read-out and setting: the same measure for `CCC(Nc1cc(C)nc2c(-c3ccc(OC)cc3OC)c(C)nn12)c1nc(C)no1` (stereo not drawn) [Example 11-20, [3-(2,4-Dimethoxy-phenyl)-2,5-dimethyl-pyrazolo[1,5-a]pyrimidin-7-yl]-[1-(3-methyl-[1,2,4]oxadiazol-5-yl)-propyl]-amine]: under 100 nM; for `COc1ccc(-c2c(C)nn3c(NC(C)Cc4nc(C)no4)cc(C)nc23)c(C)c1` (stereo not drawn) [Example 12-1, [3-(4-Methoxy-2-methyl-phenyl)-2,5-dimethyl-pyrazolo[1,5-a]pyrimidin-7-yl]-[1-methyl-2-(3-methyl-[1,2,4]oxadiazol-5-yl)-ethyl]-amine]: under 100 nM.

Staying with this experiment, now noted: displacement of [125I] tyrosine-sauvagine from membranes of cells stably transfected with human CRF receptors; less than 0.10 μM (i.e., 100 nM); read-out: Ki (CRF receptor binding affinity).
Regarding `CCC(Nc1cc(C)nc2c(-c3ccc(OC)cc3C)c(C)nn12)c1nc(C2CC2)no1` (stereo not drawn) [Example 11-1, [1-(3-Cyclopropyl-[1,2,4]oxadiazol-5-yl)-propyl]-[3-(4-methoxy-2-methyl-phenyl)-2,5-dimethyl-pyrazolo[1,5-a]pyrimidin-7-yl]-amine], the Ki was under 100 nM.
In the case of `COc1ccc(-c2c(C)nn3c(NC(Cc4ccccc4)c4nc(C)no4)cc(C)nc23)c(C)c1` (stereo not drawn) [Example 11-3, [3-(4-Methoxy-2-methyl-phenyl)-2,5-dimethyl-pyrazolo[1,5-a]pyrimidin-7-yl]-[1-(3-methyl-[1,2,4]oxadiazol-5-yl)-2-phenyl-ethyl]-amine], the Ki was under 100 nM.
On the same count and under the same terms, then `CCC(Nc1cc(C)nc2c(-c3ccc(OC)cc3C)c(C)nn12)c1nc(C(C)C)no1` (stereo not drawn) [Example 11-4, [1-(3-Isopropyl-[1,2,4]oxadiazol-5-yl)-propyl]-[3-(4-methoxy-2-methyl-phenyl)-2,5-dimethyl-pyrazolo[1,5-a]pyrimidin-7-yl]-amine], with under 100 nM.
Same read-out and setting: then `CCCC(Nc1cc(C)nc2c(-c3ccc(OC)cc3C)c(C)nn12)c1nc(C)no1` (stereo not drawn) [Example 11-5, [3-(4-Methoxy-2-methyl-phenyl)-2,5-dimethyl-pyrazolo[1,5-a]pyrimidin-7-yl]-[1-(3-methyl-[1,2,4]oxadiazol-5-yl)-butyl]-amine], with under 100 nM; and `COc1ccc(-c2c(C)nn3c(N[C@H](C)Cc4nc(C5CC5)no4)cc(C)nc23)c(C)c1` [Example 11-9, [2-(3-Cyclopropyl-[1,2,4]oxadiazol-5-yl)-(R)-1-methyl-ethyl]-[3-(4-methoxy-2-methyl-phenyl)-2,5-dimethyl-pyrazolo[1,5-a]pyrimidin-7-yl]-amine], with under 100 nM; and `CCC(Nc1cc(C)nc2c(-c3ccc(OC)cc3C)c(C)nn12)c1nc(C(F)(F)F)no1` (stereo not drawn) [Example 11-11, [3-(4-Methoxy-2-methyl-phenyl)-2,5-dimethyl-pyrazolo[1,5-a]pyrimidin-7-yl]-[1-(3-trifluoromethyl-[1,2,4]oxadiazol-5-yl)-propyl]-amine], with under 100 nM.
The same measure, in the same setting: then `CCc1noc(C[C@@H](C)Nc2cc(C)nc3c(-c4ccc(OC)cc4C)c(C)nn23)n1` [Example 11-17, [2-(3-Ethyl-[1,2,4]oxadiazol-5-yl)-(R)-1-methyl-ethyl]-[3-(4-methoxy-2-methyl-phenyl)-2,5-dimethyl-pyrazolo[1,5-a]pyrimidin-7-yl]-amine], with under 100 nM; and `Cc1cc(N[C@H](CC(C)C)c2nc(C)no2)n2nc(C)c(-c3cnc(N(C)C)cc3C)c2n1` [Example 11-18, [3-(6-Dimethylamino-4-methyl-pyridin-3-yl)-2,5-dimethyl-pyrazolo[1,5-a]pyrimidin-7-yl]-[3-methyl-(R)-1-(3-methyl-[1,2,4]oxadiazol-5-yl)-butyl]-amine], with under 100 nM.
Turning to `COc1ccc(-c2c(C)nn3c(NC(CC(C)C)c4nc(C)no4)cc(C)nc23)c(OC)c1` (stereo not drawn) [Example 11-23, [3-(2,4-Dimethoxy-phenyl)-2,5-dimethyl-pyrazolo[1,5-a]pyrimidin-7-yl]-[3-methyl-1-(3-methyl-[1,2,4]oxadiazol-5-yl)-butyl]-amine], the inhibition constant Ki is under 100 nM.
On the same count and under the same terms, the same measure for `COc1ccc(-c2c(C)nn3c(N(Cc4ccccc4)Cc4nc(C)no4)cc(C)nc23)c(C)c1` [Example 12-2, Benzyl-[3-(4-methoxy-2-methyl-phenyl)-2,5-dimethyl-pyrazolo[1,5-a]pyrimidin-7-yl]-(3-methyl-[1,2,4]oxadiazol-5-ylmethyl)-amine]: under 100 nM; for `COc1ccc(-c2c(C)nn3c(NC(Cc4nc(C)no4)C(F)(F)F)cc(C)nc23)c(C)c1` (stereo not drawn) [Example 12-3, [3-(4-Methoxy-2-methyl-phenyl)-2,5-dimethyl-pyrazolo[1,5-a]pyrimidin-7-yl]-[2,2,2-trifluoro-1-(3-methyl-[1,2,4]oxadiazol-5-ylmethyl)-ethyl]-amine]: under 100 nM.
Consider `COc1ccc(-c2c(C)nn3c(NC(C)Cc4nc(C5CC5)no4)cc(C)nc23)c(C)c1` (stereo not drawn) [Example 12-4, [2-(3-Cyclopropyl-[1,2,4]oxadiazol-5-yl)-1-methyl-ethyl]-[3-(4-methoxy-2-methyl-phenyl)-2,5-dimethyl-pyrazolo[1,5-a]pyrimidin-7-yl]-amine], for which the Ki was under 100 nM.
In the case of `COc1ccc(-c2c(C)nn3c(NC(C)Cc4nc(C(C)C)no4)cc(C)nc23)c(C)c1` (stereo not drawn) [Example 12-5, [2-(3-Isopropyl-[1,2,4]oxadiazol-5-yl)-1-methyl-ethyl]-[3-(4-methoxy-2-methyl-phenyl)-2,5-dimethyl-pyrazolo[1,5-a]pyrimidin-7-yl]-amine], the Ki was under 100 nM.
Still for that read-out and setting: then `CCC(Cc1nc(C)no1)Nc1cc(C)nc2c(-c3ccc(OC)cc3C)c(C)nn12` (stereo not drawn) [Example 12-9, [3-(4-Methoxy-2-methyl-phenyl)-2,5-dimethyl-pyrazolo[1,5-a]pyrimidin-7-yl]-[1-(3-methyl-[1,2,4]oxadiazol-5-ylmethyl)-propyl]-amine], with under 100 nM; and `CCC(Cc1nc(C2CC2)no1)Nc1cc(C)nc2c(-c3ccc(OC)cc3OC)c(C)nn12` (stereo not drawn) [Example 12-10, [1-(3-Cyclopropyl-[1,2,4]oxadiazol-5-ylmethyl)-propyl]-[3-(2,4-dimethoxy-phenyl)-2,5-dimethyl-pyrazolo[1,5-a]pyrimidin-7-yl]-amine], with under 100 nM.
Turning to `CCC(Cc1nc(C)no1)Nc1cc(C)nc2c(-c3ccc(OC)cc3OC)c(C)nn12` (stereo not drawn) [Example 12-11, [3-(2,4-Dimethoxy-phenyl)-2,5-dimethyl-pyrazolo[1,5-a]pyrimidin-7-yl]-[1-(3-methyl-[1,2,4]oxadiazol-5-ylmethyl)-propyl]-amine], the inhibition constant Ki is under 100 nM.
With `CCC[C@H](Nc1cc(C)nc2c(-c3ccc(OC)cc3C)c(C)nn12)c1nc(C)no1` [Example 13-1, [3-(4-Methoxy-2-methyl-phenyl)-2,5-dimethyl-pyrazolo[1,5-a]pyrimidin-7-yl]-[(S)-1-(3-methyl-[1,2,4]oxadiazol-5-yl)-butyl]-amine], the Ki is under 100 nM.
On the same count and under the same terms, the same measure for `COc1ccc(-c2c(C)nn3c(N[C@@H](Cc4nc(C)no4)C(F)(F)F)cc(C)nc23)c(C)c1` [Example 13-2, [3-(4-Methoxy-2-methyl-phenyl)-2,5-dimethyl-pyrazolo[1,5-a]pyrimidin-7-yl]-[2,2,2-trifluoro-(S)-1-(3-methyl-[1,2,4]oxadiazol-5-ylmethyl)-ethyl]-amine]: under 100 nM; for `COc1ccc(-c2c(C)nn3c(NC(C)Cc4nc(C(F)(F)F)no4)cc(C)nc23)c(C)c1` (stereo not drawn) [Example 13-3, [3-(4-Methoxy-2-methyl-phenyl)-2,5-dimethyl-pyrazolo[1,5-a]pyrimidin-7-yl]-[1-methyl-2-(3-trifluoromethyl-[1,2,4]oxadiazol-5-yl)-ethyl]-amine]: under 100 nM.
The same measure, in the same setting: the same measure for `COc1ccc(-c2c(C)nn3c(N[C@@H](Cc4nc(C)no4)C(F)(F)F)cc(C)nc23)c(Cl)c1` [Example 13-4, [3-(2-Chloro-4-methoxy-phenyl)-2,5-dimethyl-pyrazolo[1,5-a]pyrimidin-7-yl]-[2,2,2-trifluoro-(S)-1-(3-methyl-[1,2,4]oxadiazol-5-ylmethyl)-ethyl]-amine]: under 100 nM.

Source of the values: US7879862B2, “Pyrazolo[1,5-alpha]pyrimidinyl derivatives useful as corticotropin-releasing factor (CRF) receptor antagonists” (SmithKline Beecham (Cork) Limited, priority 2004, dated 2011).
